In patent publication US5900434A, “Method for inhibiting the production of interleukin-1 or tumor necrosis factor-α by administering acanthoic acid” (Korea Institute of Science and Technology, priority 1994, dated 1999):

What was measured:
[1] = tested on: serum glutamic-pyruvic transaminase (sGPT); assay: CCl4-induced hepatocirrhosis in rat, serum GPT; type: in vivo, Sprague-Dawley rat; conditions: CCl4-treated rat; 0.2 ml orally twice a week, 13 weeks; FIG. 10
Text: Hepatocirrhosis(hepatic sclerosis) is characterized by the fibrosis of whole liver, complete disruption of liver parenchyma by fibrous septa, and formation of regenerative nodules. It is derived mostly from a chronic hepatitis or chronic alcoholism, however, the precise causes thereof are unknown. In a hepatocirrhosis patient, the amount of cytokines, e.g., TNF-α, which is involved in inflammation and fibrosis, is in an increased state; and, therefore, the inhibition of hepatocirrhosis by acanthoic acid may be determined by the inhibitory activity to TNF-α. To induce the experimental hepatocirrhosis in accordance with the method of Nakataukasa, H., et al. as described in J. Clin. Invest., 85, 1833-1843(1990), 1.0 ml/100 g of body weight of CCl4 solution(50% CCl4 +50% corn oil) was injected intraperitoneally to 4 week old male Sprague-Dawley rats twice a week, and 0.2 ml each of methanol extract of A. koreanum Nakai and acanthoic acid was administered orally at the time of the injection of CCl4 twice a week. After 13 weeks from the start of the test, each of the rats was anesthetized with ether and the blood samples were obtained from the heart to determine serum glutamic-oxaloacetic transaminase(sGOT) value and serum glutamic-pyruvic transaminase(sGPT) value(FIG. 10).

[2] = tested on: O2^- production in human monocytes and macrophages; assay: Production of O2^- in silica-stimulated human monocytes and macrophages; type: cell-based; conditions: 10 μg/ml, 1 hour, 100 μg/ml silica, FIG. 5
Method: Normal human peripheral blood was heparin-treated and diluted with equal amount of Hank's balanced salt solution (HBSS: Ca^2+ and Mg^2+ free). The diluted blood was put into a centrifuge tube containing therein Ficoll-Hypaque(Sigma, St. Louis, Mo., U.S.A.) layer having a density of 1.077 piled up on Ficoll-Hypaque layer having a density of 1.119, and then centrifuged at 700×g for 30 minutes to obtain monocytes from the layer between Ficoll-Hypaque layer having a density of 1.077 and serum layer, and neutrophils from the layer between Ficoll-Hypaque layer having a density of 1.077 and that having a density of 1.119. The separated cells were washed twice with 4° C. HBSS(Ca^2+ and Mg^2+ free) and suspended in RPMI 1640 medium(Gibco, Grand Island, N.Y., U.S.A.) containing 10% fetal bovine serum(FBS, Hyclone, Logan, Utah, U.S.A.). The suspensions were added to the wells of 24-well incubation plate(Costar, Cambridge, Mass., U.S.A.) and incubated at 37° C. for 2 hours to obtain monocytes, macrophages and neutrophils. […] The change of color of the supernatant caused by the reduction of cytochrome C was measured at 550 nm by using a UV-Visible spectrophotometer (Kontron Instrument, Milano, Italy). […]

[3] = tested on: H2O2 production in human neutrophils; assay: Production of H2O2 in human neutrophils (PMA-stimulated); type: cell-based
Method: Normal human peripheral blood was heparin-treated and diluted with equal amount of Hank's balanced salt solution (HBSS: Ca^2+ and Mg^2+ free). The diluted blood was put into a centrifuge tube containing therein Ficoll-Hypaque(Sigma, St. Louis, Mo., U.S.A.) layer having a density of 1.077 piled up on Ficoll-Hypaque layer having a density of 1.119, and then centrifuged at 700×g for 30 minutes to obtain monocytes from the layer between Ficoll-Hypaque layer having a density of 1.077 and serum layer, and neutrophils from the layer between Ficoll-Hypaque layer having a density of 1.077 and that having a density of 1.119. The separated cells were washed twice with 4° C. HBSS(Ca^2+ and Mg^2+ free) and suspended in RPMI 1640 medium(Gibco, Grand Island, N.Y., U.S.A.) containing 10% fetal bovine serum(FBS, Hyclone, Logan, Utah, U.S.A.). The suspensions were added to the wells of 24-well incubation plate(Costar, Cambridge, Mass., U.S.A.) and incubated at 37° C. for 2 hours to obtain monocytes, macrophages and neutrophils. Inflammatory responses are known as a cascade reaction comprising the secretion of various cytokines, e.g., IL-1, from immune cells stimulated by various stimulants; production of phospholipase A2, lysosomal enzyme, reactive oxygen species, etc. by other immune cells stimulated by said cytokines; and damage of tissues induced by the above products(Pruzanski, W. and […]., Immunol. Today, 12, 143(1991)). The ability of acanthoic acid to block the inflammatory reactions was tested by measuring their inhibitory activity to the production of reactive oxygen species, i.e., H2 O2 and O2^-. The amount of H2 O2 was determined by a microassay employing 96-well microplate as follows. 5×10^5 cells of neutrophils were added to each of the wells containing RPMI 1640 medium, and then 25 μl of horseradish peroxidase (500 μg/ml; type II, Sigma) and 75 μl of phenol red(1 mg/ml) were added to each of the wells. Thereafter, the cells were treated with 10, 20 and 50 μg/ml of acanthoic acid for an hour, stimulated with 10^-7 M phorbol myristate acetate(PMA) and then incubated at 37° C. for 60 minutes. When the incubation was completed, 3M NaOH was added to the wells in an amount of 25 μl/well to stop the reaction and O.D. was measured at 620 nm by using ELISA reader(Dynatech Lab. Inc.) to determine the change of colors with respect to the oxidation of phenol. The amount of H2 O2 was determined by employing a standard curve prepared by diluted H2 O2 (Sigma).

C=C[C@@]1(C)CC=C2C(CCC3[C@](C)(C(=O)O)CCC[C@@]23C)C1 (single isomer, unassigned; (-)) [acanthoic acid, (-)-pimara-9(11),15-diene-19-oic acid]
decrease of sGPT value [1]: more than 40% | amount of O2^- [2]: decrease significantly | activity at 10 µg/mL ([3]; Neutrophil, 1 h, PMA + acanthoic acid 10 μg/ml, PMA = 100, read-out: Amount of produced reactive oxygen species, H2O2 (% to the control group)): 70% | activity at 20 µg/mL ([3]; Neutrophil, 1 h, PMA + acanthoic acid 20 μg/ml, PMA = 100, read-out: Amount of produced reactive oxygen species, H2O2 (% to the control group)): 37.4% | activity at 50 µg/mL ([3]; Neutrophil, 1 h, PMA + acanthoic acid 50 μg/ml, PMA = 100, read-out: Amount of produced reactive oxygen species, H2O2 (% to the control group)): 15.8% | Amount of produced reactive oxygen species, H2O2 ([3]; PMA + acanthoic acid 10 μg/ml): 72.6 nM/60 min. | Amount of produced reactive oxygen species, H2O2 ([3]; PMA + acanthoic acid 20 μg/ml): 38.7 nM/60 min. | Amount of produced reactive oxygen species, H2O2 ([3]; PMA + acanthoic acid 50 μg/ml): 16.4 nM/60 min.
